In patent US11185531B2, “Arginine methyltransferase inhibitors and uses thereof” (Epizyme, Inc., priority 2013, dated 2021):

Target: T1, Human CARM1 (PRMT4) (Homo sapiens, UniProt Q86X55)
T1 construct: Flag-CARM1-His was eluted with 200 ug/ml FLAG peptide in buffer A; made in house; host or cells: HEK 293F cells (BacMam baculovirus, pFastBacMam)
T1 sequence (Q86X55 1-585 isoform Q86X55-1): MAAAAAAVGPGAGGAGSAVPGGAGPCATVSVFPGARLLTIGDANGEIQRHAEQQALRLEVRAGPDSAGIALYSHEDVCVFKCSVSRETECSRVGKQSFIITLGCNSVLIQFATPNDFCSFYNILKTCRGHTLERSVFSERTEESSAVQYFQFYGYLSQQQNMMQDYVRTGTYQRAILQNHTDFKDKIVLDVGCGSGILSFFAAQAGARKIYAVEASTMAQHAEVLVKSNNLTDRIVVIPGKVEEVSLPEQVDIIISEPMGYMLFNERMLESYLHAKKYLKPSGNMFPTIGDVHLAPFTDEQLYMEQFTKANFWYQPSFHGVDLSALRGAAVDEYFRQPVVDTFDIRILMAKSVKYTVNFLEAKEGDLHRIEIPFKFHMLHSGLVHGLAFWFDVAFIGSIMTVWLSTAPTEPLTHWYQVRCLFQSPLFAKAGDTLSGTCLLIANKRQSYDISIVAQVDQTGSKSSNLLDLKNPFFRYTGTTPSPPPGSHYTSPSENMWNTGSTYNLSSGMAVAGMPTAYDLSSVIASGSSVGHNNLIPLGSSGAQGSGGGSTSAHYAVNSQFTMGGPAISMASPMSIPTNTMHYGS
Test: CARM1 Biochemical Assay (3H-SAM Flashplate, peptide substrate)
Details: 30 min preincubation
From the text: Peptide representative of human histone H3 residues 16-30 was synthesized with an N-terminal linker-affinity tag motif and a C-terminal amide cap by 21st Century Biochemicals. The peptide was purified by high-performance liquid chromatography (HPLC) to greater than 95% purity and confirmed by liquid chromatography mass spectrometry (LC-MS). The sequence was Biot-Ahx-[…]-amide and contained a monomethylated arginine at position 26 (SEQ ID NO:14).
Human CARM1 (PRMT4) (NM_199141.1) transcript clone was amplified from an HEK 293 cDNA library, incorporating a flanking 5′ sequence encoding a FLAG tag ([…]) (SEQ ID NO:6) fused directly to Ala 2 of CARM1 and 3′ sequence encoding a hexa His sequence ([…]) (SEQ ID NO:15) fused directly to Ser 608. The gene sequence encoding isoform1 containing a deletion of amino acids 539-561 was amplified subsequently and subcloned into pFastBacMam (Viva Biotech).
Column was washed with 500 mM NaCl in buffer A and Flag-CARM1-His was eluted with 200 ug/ml FLAG peptide in buffer A. Pooled fractions were dialyzed in 20 mM Tris, 150 mM NaCl, 5% glycerol and 1 mM DTT, pH 7.8. The purity of recovered protein was 94.
General Procedure for CARM1 Enzyme Assays on Peptide Substrates.
The assays were all performed in a buffer consisting of 20 mM Bicine (pH=7.6), 1 mM TCEP, 0.005% BSG, and 0.002% Tween 20, prepared on the day of use. Compounds in 100% DMSO (1 ul) were spotted into a polypropylene 384-well V-bottom plates (Greiner) using a Platemate Plus outfitted with a 384-channel head (Thermo Scientific). DMSO (1 ul) was added to Columns 11, 12, 23, 24, rows A-H for the maximum signal control and 1 ul of SAH, a known product and inhibitor of CARM1, was added to columns 11, 12, 23, 24, rows I-P for the minimum signal control. A cocktail (40 ul) containing the CARM1 enzyme was added by Multidrop Combi (Thermo-Fisher). The compounds were allowed to incubate with CARM1 for 30 min at room temperature, then a cocktail (10 ul) containing ^3H-SAM and peptide was added to initiate the reaction (final volume=51 ul). The final concentrations of the components were as follows: CARM1 was 0.25 nM, ^3H-SAM was 30 nM, peptide was 250 nM, SAH in the minimum signal control wells was 1 mM, and the DMSO concentration was 2%. The assays were stopped by the addition of non-radiolabeled SAM (10 ul) to a final concentration of 300 uM, which dilutes the ^3H-SAM to a level where its incorporation into the peptide substrate is no longer detectable. 50 ul of the reaction in the 384-well polypropylene plate was then transferred to a 384-well Flashplate and the biotinylated peptides were allowed to bind to the streptavidin surface for at least 1 hour before being washed once with 0.1% Tween20 in a Biotek ELx405 plate washer. The plates were then read in a PerkinElmer TopCount plate reader to measure the quantity of ^3H-labeled peptide bound to the Flashplate surface, measured as disintegrations per minute (dpm) or alternatively, referred to as counts per minute (cpm).
Where dpm=disintegrations per minute, cmpd=signal in assay well, and min and max are the respective minimum and maximum signal controls.
Where top and bottom are the normally allowed to float, but may be fixed at 100 or 0 respectively in a 3-parameter fit. The Hill Coefficient normally allowed to float but may also be fixed at 1 in a 3-parameter fit. Y is the % inhibition and X is the compound concentration.

Structure (SMILES)	IC50
CNCCN(C)Cc1c[nH]nc1C#Cc1cccc(OC)c1 [Compound 1]	101 to 1000 nM
CNCCN(C)Cc1c[nH]nc1C#Cc1ccc(C(C)(C)C)cc1 [Compound 2]	101 to 1000 nM
CNCCN(C)Cc1c[nH]nc1C#Cc1ccccc1 [Compound 3]	1010 to 3000 nM
CNCCN(C)Cc1c[nH]nc1C#Cc1ccc(F)cc1 [Compound 4]	101 to 1000 nM
CNCCN(C)Cc1c[nH]nc1/C=C/c1ccc(-c2ccccc2)cc1 [Compound 5]	101 to 1000 nM
CNCCN(C)Cc1c[nH]nc1/C=C/c1ccc(C(F)(F)F)cc1 [Compound 6]	101 to 1000 nM
CNCCN(C)Cc1c[nH]nc1/C=C/c1ccc(OC)cc1 [Compound 7]	< 100 nM
Cc1ccc(/C=C/c2n[nH]cc2CN(C)CCN)cc1 [Compound 8]	101 to 1000 nM
COc1cc(/C=C/c2n[nH]cc2CN(C)CCN)cc(OC)c1 [Compound 11]	< 100 nM
CN(CCN)Cc1c[nH]nc1/C=C/c1ccc(F)cc1F [Compound 13]	101 to 1000 nM
CN(CCN)Cc1c[nH]nc1/C=C/c1cc(C(F)(F)F)cc(C(F)(F)F)c1 [Compound 14]	101 to 1000 nM
CN(CCN)Cc1c[nH]nc1/C=C/c1cc(F)cc(F)c1 [Compound 15]	101 to 1000 nM
CN(CCN)Cc1c[nH]nc1/C=C/c1cccc(C(F)(F)F)c1 [Compound 16]	101 to 1000 nM
COc1cccc(/C=C/c2n[nH]cc2CN(C)CCN)c1 [Compound 17]	< 100 nM
CN(CCN)Cc1c[nH]nc1/C=C/c1ccc(C(F)(F)F)cc1 [Compound 18]	< 100 nM
COC/C=C/c1n[nH]cc1CN(C)CCN [Compound 19]	3010 to 10000 nM
CN(CCN)Cc1c[nH]nc1/C=C/c1cccc(F)c1 [Compound 20]	101 to 1000 nM
CN(CCN)Cc1c[nH]nc1C1CCCCC1 [Compound 22]	3010 to 10000 nM
CN(CCN)Cc1c[nH]nc1CCc1ccc(F)cc1 [Compound 23, N^1-((3-(4-fluorophenethyl)-1H-pyrazol-4-yl)methyl)-N^1-methylethane-1,2-diamine]	1010 to 3000 nM
